# Source: the supplement of paper PMC10307832
# Experiments:
# Assay in all cases: relative viability (nuclei count vs DMSO), 5 days (fraction); higher = more cells survive
# BEN = system: BEN
# Procedure, shortened: (§1)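 Lung cancer cell lines were seeded in 1536-well plates and dosed by pin tool the next day, with either a single drug or a fixed anchor-drug dose combined with five library-drug doses (not always all listed) spaced in √10 steps. Five days later, one step fixed the cells and stained their nuclei (final 0.05% Triton X-100, 1% formaldehyde, 1 ug/ml Hoechst), and nuclei were counted on 4× images. Relative viability is the nuclei count in treated wells divided by the count in vehicle wells, and each value is the median of duplicate plates.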
# EKVX = system: EKVX
# Procedure, shortened: as §1
# HARA = system: HARA
# Procedure, shortened: as §1
# HCC-366 = system: HCC-366
# Procedure, shortened: as §1
# HCC-827 = system: HCC-827
# Procedure, shortened: as §1
# LOU-NH91 = system: LOU-NH91
# Procedure, shortened: as §1
# NCI-H1355 = system: NCI-H1355
# Procedure, shortened: as §1
# NCI-H1395 = system: NCI-H1395
# Procedure, shortened: as §1
# NCI-H1437 = system: NCI-H1437
# Procedure, shortened: as §1
# NCI-H1734 = system: NCI-H1734
# Procedure, shortened: as §1
# NCI-H1792 = system: NCI-H1792
# Procedure, shortened: as §1
# NCI-H1993 = system: NCI-H1993
# Procedure, shortened: as §1
# NCI-H2009 = system: NCI-H2009
# Procedure, shortened: as §1
# NCI-H2087 = system: NCI-H2087
# Procedure, shortened: as §1
# NCI-H2170 = system: NCI-H2170
# Procedure, shortened: as §1
# NCI-H2405 = system: NCI-H2405
# Procedure, shortened: as §1
# NCI-H647 = system: NCI-H647
# Procedure, shortened: as §1
# NCI-H661 = system: NCI-H661
# Procedure, shortened: as §1
# SK-LU-1 = system: SK-LU-1
# Procedure, shortened: as §1
# SK-MES-1 = system: SK-MES-1
# Procedure, shortened: as §1
smiles,measurement,setting,value
COc1cc2nccc(Oc3ccc(NC(=O)Nc4cc(C)on4)c(Cl)c3)c2cc1OC [Tivozanib] + CS(=O)(=O)CCNCc1ccc(-c2ccc3ncnc(Nc4ccc(OCc5cccc(F)c5)c(Cl)c4)c3c2)o1 [Lapatinib] (partner 2 µM),relative viability,BEN; first compound 0.005 µM,0.476
same,relative viability,BEN; first compound 0.01581 µM,0.839
same,relative viability,BEN; first compound 0.05 µM,0.722
same,relative viability,BEN; first compound 0.5 µM,0.633
same,relative viability,EKVX; first compound 0.005 µM,0.224
same,relative viability,EKVX; first compound 0.01581 µM,0.199
same,relative viability,EKVX; first compound 0.05 µM,0.216
same,relative viability,EKVX; first compound 0.1581 µM,0.182
same,relative viability,EKVX; first compound 0.5 µM,0.192
same,relative viability,HARA; first compound 0.005 µM,0.615
same,relative viability,HARA; first compound 0.01581 µM,0.724
same,relative viability,HARA; first compound 0.05 µM,0.79
same,relative viability,HARA; first compound 0.1581 µM,0.641
same,relative viability,HARA; first compound 0.5 µM,0.831
same,relative viability,HCC-366; first compound 0.005 µM,0.991
same,relative viability,HCC-366; first compound 0.01581 µM,1.08
same,relative viability,HCC-366; first compound 0.05 µM,1.12
same,relative viability,HCC-366; first compound 0.1581 µM,1.03
same,relative viability,HCC-366; first compound 0.5 µM,0.976
same,relative viability,HCC-827; first compound 0.005 µM,0.244
same,relative viability,HCC-827; first compound 0.01581 µM,0.181
same,relative viability,HCC-827; first compound 0.05 µM,0.204
same,relative viability,HCC-827; first compound 0.1581 µM,0.233
same,relative viability,HCC-827; first compound 0.5 µM,0.842
same,relative viability,LOU-NH91; first compound 0.005 µM,0.704
same,relative viability,LOU-NH91; first compound 0.01581 µM,0.772
same,relative viability,LOU-NH91; first compound 0.05 µM,0.758
same,relative viability,LOU-NH91; first compound 0.1581 µM,0.62
same,relative viability,LOU-NH91; first compound 0.5 µM,0.794
same,relative viability,NCI-H1355; first compound 0.005 µM,0.894
same,relative viability,NCI-H1355; first compound 0.01581 µM,0.941
same,relative viability,NCI-H1355; first compound 0.05 µM,1
same,relative viability,NCI-H1355; first compound 0.5 µM,0.92
same,relative viability,NCI-H1395; first compound 0.005 µM,0.939
same,relative viability,NCI-H1395; first compound 0.01581 µM,1.11
same,relative viability,NCI-H1395; first compound 0.05 µM,1.02
same,relative viability,NCI-H1395; first compound 0.1581 µM,0.863
same,relative viability,NCI-H1395; first compound 0.5 µM,0.778
same,relative viability,NCI-H1437; first compound 0.005 µM,0.771
same,relative viability,NCI-H1437; first compound 0.01581 µM,0.8
same,relative viability,NCI-H1437; first compound 0.05 µM,0.777
same,relative viability,NCI-H1437; first compound 0.1581 µM,0.824
same,relative viability,NCI-H1437; first compound 0.5 µM,0.708
same,relative viability,NCI-H1734; first compound 0.005 µM,1.03
same,relative viability,NCI-H1734; first compound 0.01581 µM,1.05
same,relative viability,NCI-H1734; first compound 0.05 µM,1.17
same,relative viability,NCI-H1734; first compound 0.1581 µM,0.814
same,relative viability,NCI-H1734; first compound 0.5 µM,1.01
same,relative viability,NCI-H1792; first compound 0.005 µM,0.901
same,relative viability,NCI-H1792; first compound 0.01581 µM,0.925
same,relative viability,NCI-H1792; first compound 0.05 µM,0.922
same,relative viability,NCI-H1792; first compound 0.1581 µM,0.841
same,relative viability,NCI-H1792; first compound 0.5 µM,1.01
same,relative viability,NCI-H1993; first compound 0.005 µM,0.774
same,relative viability,NCI-H1993; first compound 0.01581 µM,0.775
same,relative viability,NCI-H1993; first compound 0.05 µM,0.758
same,relative viability,NCI-H1993; first compound 0.1581 µM,0.713
same,relative viability,NCI-H1993; first compound 0.5 µM,0.739
same,relative viability,NCI-H2009; first compound 0.005 µM,0.88
same,relative viability,NCI-H2009; first compound 0.01581 µM,1.1
same,relative viability,NCI-H2009; first compound 0.05 µM,0.937
same,relative viability,NCI-H2009; first compound 0.1581 µM,0.896
same,relative viability,NCI-H2009; first compound 0.5 µM,0.909
same,relative viability,NCI-H2087; first compound 0.005 µM,1
same,relative viability,NCI-H2087; first compound 0.01581 µM,0.885
same,relative viability,NCI-H2087; first compound 0.05 µM,0.942
same,relative viability,NCI-H2087; first compound 0.1581 µM,1.2
same,relative viability,NCI-H2087; first compound 0.5 µM,0.859
same,relative viability,NCI-H2170; first compound 0.005 µM,0.252
same,relative viability,NCI-H2170; first compound 0.01581 µM,0.296
same,relative viability,NCI-H2170; first compound 0.05 µM,0.266
same,relative viability,NCI-H2170; first compound 0.5 µM,0.289
same,relative viability,NCI-H2405; first compound 0.005 µM,0.972
same,relative viability,NCI-H2405; first compound 0.01581 µM,1.28
same,relative viability,NCI-H2405; first compound 0.05 µM,1.1
same,relative viability,NCI-H2405; first compound 0.1581 µM,1.01
same,relative viability,NCI-H2405; first compound 0.5 µM,0.572
same,relative viability,NCI-H647; first compound 0.005 µM,0.935
same,relative viability,NCI-H647; first compound 0.01581 µM,0.971
same,relative viability,NCI-H647; first compound 0.05 µM,0.98
same,relative viability,NCI-H647; first compound 0.1581 µM,0.866
same,relative viability,NCI-H647; first compound 0.5 µM,0.966
same,relative viability,NCI-H661; first compound 0.005 µM,0.436
same,relative viability,NCI-H661; first compound 0.01581 µM,0.495
same,relative viability,NCI-H661; first compound 0.05 µM,0.46
same,relative viability,NCI-H661; first compound 0.1581 µM,0.496
same,relative viability,NCI-H661; first compound 0.5 µM,0.553
same,relative viability,SK-LU-1; first compound 0.005 µM,0.827
same,relative viability,SK-LU-1; first compound 0.01581 µM,0.809
same,relative viability,SK-LU-1; first compound 0.05 µM,0.895
same,relative viability,SK-LU-1; first compound 0.1581 µM,0.704
same,relative viability,SK-LU-1; first compound 0.5 µM,0.738
same,relative viability,SK-MES-1; first compound 0.005 µM,0.421
same,relative viability,SK-MES-1; first compound 0.01581 µM,0.446
same,relative viability,SK-MES-1; first compound 0.05 µM,0.5
same,relative viability,SK-MES-1; first compound 0.1581 µM,0.437
same,relative viability,SK-MES-1; first compound 0.5 µM,0.509
